The values below come from patent EP2650284A1, “Heterocyclic derivatives as metabotropic glutamate receptor modulators” (Merz Pharma GmbH & Co. KGaA, priority 2012, dated 2013).

pEC50: −log10 of the molar value.

For this experiment, the target named is T1, mGluR5 receptors (Rattus norvegicus, UniProt P31424).
T1 construct: Primary astrocyte cultures are prepared from cortices of newborn rats; endogenous in cells; host or cells: primary cortical astrocytes from Sprague-Dawley rat pups (2-4 d old)
T1 sequence (P31424 21-1203): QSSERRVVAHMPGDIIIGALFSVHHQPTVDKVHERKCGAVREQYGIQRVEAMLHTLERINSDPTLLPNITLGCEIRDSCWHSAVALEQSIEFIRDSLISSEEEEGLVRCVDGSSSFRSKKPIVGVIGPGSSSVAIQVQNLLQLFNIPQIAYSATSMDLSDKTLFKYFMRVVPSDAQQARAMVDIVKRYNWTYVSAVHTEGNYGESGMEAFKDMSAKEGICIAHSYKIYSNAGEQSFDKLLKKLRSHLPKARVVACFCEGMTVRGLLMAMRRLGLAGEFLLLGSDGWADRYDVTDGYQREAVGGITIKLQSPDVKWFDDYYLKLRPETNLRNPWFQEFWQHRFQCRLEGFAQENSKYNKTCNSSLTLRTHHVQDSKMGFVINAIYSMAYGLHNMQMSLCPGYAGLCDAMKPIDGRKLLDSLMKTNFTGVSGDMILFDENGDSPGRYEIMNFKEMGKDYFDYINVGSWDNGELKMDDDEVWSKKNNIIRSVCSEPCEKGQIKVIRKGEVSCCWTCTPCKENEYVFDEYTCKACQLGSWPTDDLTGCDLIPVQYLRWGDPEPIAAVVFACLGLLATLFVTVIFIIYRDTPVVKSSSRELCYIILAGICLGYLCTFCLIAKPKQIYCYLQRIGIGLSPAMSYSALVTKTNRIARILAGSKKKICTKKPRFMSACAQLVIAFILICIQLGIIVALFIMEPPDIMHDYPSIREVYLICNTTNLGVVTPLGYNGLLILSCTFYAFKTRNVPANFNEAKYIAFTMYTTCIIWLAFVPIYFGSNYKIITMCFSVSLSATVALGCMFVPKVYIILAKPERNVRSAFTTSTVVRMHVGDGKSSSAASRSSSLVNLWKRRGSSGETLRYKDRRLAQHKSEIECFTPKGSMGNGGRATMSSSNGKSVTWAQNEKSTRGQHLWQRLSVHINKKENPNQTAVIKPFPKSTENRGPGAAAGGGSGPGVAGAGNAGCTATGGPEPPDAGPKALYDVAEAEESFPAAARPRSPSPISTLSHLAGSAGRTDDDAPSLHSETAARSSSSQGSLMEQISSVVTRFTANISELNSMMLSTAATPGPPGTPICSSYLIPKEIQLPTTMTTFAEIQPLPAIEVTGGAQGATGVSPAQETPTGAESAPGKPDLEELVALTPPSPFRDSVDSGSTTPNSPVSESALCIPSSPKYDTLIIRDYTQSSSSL
Put plainly: Cytosolic calcium studies with astrocytes (FLIPR), functional assay of mGluR5 receptors. Type of experiment: cell-based. The conditions noted are these: for pEC50: Table A1, positive modulators, fixed concentration of quisqualate (normally 10-30 nM), read-out: rEC50. In short, it runs like this: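 Rat cortical primary astrocytes at 14-15 DIV, loaded with Ca-sensitive dye for 2 h at RT, pH 7.3 buffer; FLIPR fluorescence after L-quisqualate (100 nM), antagonists pre-incubated 10 min. PAMs: quisqualate curves ± 10 µM modulator, or modulator curves at fixed 10-30 nM quisqualate. Max-min responses as % control, logistic fit.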

[1] abbreviates: Table A3 (SAMs / very weak PAMs), quisqualate EC50 shift with 10 µM modulator.
[2] abbreviates: Table A1, left shift of quisqualate EC50 in the presence and absence of 10 µM modulator.

With `CCCN1CCO[C@@H]2c3cc(C#Cc4cccc(C)c4)cnc3CC[C@@H]21` (racemic) [Example 21, (rac)-cis-4-Propyl-9-(m-tolylethynyl)-3,4,4a,5,6,10b-hexahydro-2H-[1,4]oxazino[2,3-f]quinoline], under setting [1], the r left shift is 1.9-fold. Regarding `COC(=O)N1CC[C@H]2CCc3ncc(C#Cc4ccccc4)cc3[C@H]21` (racemic) [Example 29, (rac)-cis-Methyl 8-(phenylethynyl)-2,3,3a,4,5,9b-hexahydro-1H-pyrrolo[2,3-f]quinoline-1-carboxylate], the r left shift under setting [1] was 0.8-fold. For `CCCN1CC2(CCCc3ncc(C#Cc4cccc(C)c4)cc32)OC1=O` (racemic) [Example 64, (rac)-3-Propyl-3'-(m-tolylethynyl)-7',8'-dihydro-6'H-spiro[oxazolidine-5,5'-quinolin]-2-one], the r left shift under setting [1] was 0.9-fold. For the molecule `CCCN1CC2(CCCc3ncc(C#Cc4cccc(F)c4)cc32)OC1=O` (racemic) [Example 66, (rac)-3'-((3-Fluorophenyl)ethynyl)-3-propyl-7',8'-dihydro-6'H-spiro[oxazolidine-5,5'-quinolin]-2-one], under setting [1], the r left shift was 1.3-fold. `COC1CCCc2ncc(C#Cc3ccccc3)cc21` (single isomer, unassigned) [Example 2, 5-Methoxy-3-(phenylethynyl)-5,6,7,8-tetrahydroquinoline]: the pEC50 was 7.90. Besides, the r left shift under setting [2] is on record as 4.4-fold. For the same molecule, the r left shift under setting [1] was 4.4-fold. Take `CCCN1CCO[C@@H]2c3cc(C#Cc4ccccc4)cnc3CC[C@@H]21` (single isomer, unassigned) [Example 17, cis-9-(Phenylethynyl)-4-propyl-3,4,4a,5,6,10b-hexahydro-2H-[1,4]oxazino[2,3-f]quinoline]: the pEC50 was 7.17. Moreover, the r left shift under setting [2] was 3.5-fold. Further, under setting [1], the r left shift was 3.5-fold. As for `CC(C)C(=O)N1CCc2ncc(C#Cc3ccccc3)cc2C1` [Example 33, 2-Methyl-1-(3-(phenylethynyl)-7,8-dihydro-1,6-naphthyridin-6(5H)-yl)propan-1-one], the r left shift under setting [1] was 1.3-fold.

As for `CCOC(=O)N1CCc2ncc(C#Cc3ccccc3)cc2C1` [Example 40, Ethyl 3-(phenylethynyl)-7,8-dihydro-1,6-naphthyridine-6(5H)-carboxylate], under setting [1], the r left shift is reported as 1.6-fold.
